Source: PMC9516332 (Frontiers in Oncology, 2022)
Read-outs that look alike come from different tables or passages of the source.

Experiments:
Assay in all cases: Kinase panel profiling at 1 µmol/L (MSA or IMAP), percentage inhibition
Format in all cases: biochemical
[1] = biological target: panel of 255 wild-type kinases (Homo sapiens, UniProt P29317); conditions: read-out: %-inhibition at 1 µmol/L, EPHA2
[2] = biological target: T1, panel of 255 wild-type kinases (Homo sapiens, UniProt Q96PN8); conditions: read-out: %-inhibition at 1 µmol/L, TSSK3
T1 sequence (Q96PN8 1-268): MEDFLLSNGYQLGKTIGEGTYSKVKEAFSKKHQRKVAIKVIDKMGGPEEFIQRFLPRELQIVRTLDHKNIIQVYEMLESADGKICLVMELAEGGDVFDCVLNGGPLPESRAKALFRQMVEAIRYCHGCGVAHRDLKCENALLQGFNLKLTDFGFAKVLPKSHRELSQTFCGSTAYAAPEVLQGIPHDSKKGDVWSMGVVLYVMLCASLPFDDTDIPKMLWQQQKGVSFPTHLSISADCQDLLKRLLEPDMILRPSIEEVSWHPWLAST

[3] = biological target: panel of 255 wild-type kinases (Homo sapiens, UniProt O95819); conditions: read-out: %-inhibition at 1 µmol/L, HGK
[4] = biological target: panel of 255 wild-type kinases (Homo sapiens, UniProt Q15375); conditions: read-out: %-inhibition at 1 µmol/L, EPHA7
[5] = biological target: panel of 255 wild-type kinases (Homo sapiens, UniProt P07947); conditions: read-out: %-inhibition at 1 µmol/L, YES
[6] = kinase EPHA2, 1 µmol/L single concentration
[7] = kinase TSSK3, 1 µmol/L single concentration
[8] = kinase HGK, 1 µmol/L single concentration
[9] = kinase EPHA7, 1 µmol/L single concentration
[10] = kinase YES, 1 µmol/L single concentration

Structure (SMILES) | inhibition at 1 µM [1, 6] [%] | inhibition at 1 µM [2, 7] [%] | inhibition at 1 µM [3, 8] [%] | inhibition at 1 µM [4, 9] [%] | inhibition at 1 µM [5, 10] [%] | inhibition at 1 µM [1] [%] | inhibition at 1 µM [2] [%] | inhibition at 1 µM [3] [%] | inhibition at 1 µM [4] [%] | inhibition at 1 µM [5] [%]
Cc1nc(NC(=O)N2CCC[C@H]2C(N)=O)sc1-c1ccnc(C(C)(C)C(F)(F)F)c1 [alpelisib] | -6 | 0.673 | 2.66 | -1.3 | -4 | – | – | – | – | –
Cn1cc(-c2cc3c(N4CCN(c5ncc([C@@](C)(N)c6ccc(F)cc6)cn5)CC4)ncnn3c2)cn1 [avapritinib] | 60 | -4 | 37 | 13 | 83 | – | – | – | – | –
Cn1cnc2c(F)c(Nc3ccc(Br)cc3F)c(C(=O)NOCCO)cc21 [binimetinib] | 9 | 2.62 | 3.18 | 0.598 | 2.16 | – | – | – | – | –
CNC(=O)c1ccc(-c2cnc3ncc(Cc4ccc5ncccc5c4)n3n2)cc1F [capmatinib] | – | – | – | – | – | -1 | -7 | 2.68 | -0.309 | 1.32
COc1cc2ncnc(Nc3ccc(F)c(Cl)c3)c2cc1NC(=O)/C=C/CN1CCCCC1 [dacomitinib] | 14 | 3 | 39 | 38 | – | – | – | – | – | –
C[C@H](Nc1ncnc2nc[nH]c12)c1cc2cccc(Cl)c2c(=O)n1-c1ccccc1 [duvelisib] | -6.36 | 3 | 2 | -2.14 | -2.44 | – | – | – | – | –
COC(=O)N[C@@H](C)CNc1nccc(-c2cn(C(C)C)nc2-c2cc(Cl)cc(NS(C)(=O)=O)c2F)n1 [encorafenib] | 9 | 4 | 7.59 | 5 | 3.55 | – | – | – | – | –
CN1CCN(c2ccc(C(=O)Nc3n[nH]c4ccc(Cc5cc(F)cc(F)c5)cc34)c(NC3CCOCC3)c2)CC1 [entrectinib] | 37 | 5.68 | 7 | 44 | 98 | – | – | – | – | –
CCc1nc(C(N)=O)c(Nc2ccc(N3CCC(N4CCN(C)CC4)CC3)c(OC)c2)nc1NC1CCOCC1 [gilteritinib] | 66 | 11 | 96 | 79 | 98 | – | – | – | – | –
CCN1CCN(c2ccc(Nc3cc(N(C)C(=O)Nc4c(Cl)c(OC)cc(OC)c4Cl)ncn3)cc2)CC1 [infigratinib] | 0.318 | -1.43 | 15 | -4 | 77 | – | – | – | – | –
O=C(Nc1cnn2ccc(N3CCC[C@@H]3c3cc(F)ccc3F)nc12)N1CC[C@H](O)C1 [larotrectinib] | 0 | 0.55 | 2.53 | -0.152 | -2.66 | – | – | – | – | –
C[C@H]1Oc2cc(cnc2N)-c2c(nn(C)c2C#N)CN(C)C(=O)c2ccc(F)cc21 [lorlatinib] | 45 | 3.55 | 1 | 56 | 28 | – | – | – | – | –
CCN1C(=O)N(c2c(F)c(OC)cc(OC)c2F)Cc2cnc3[nH]c(CN4CCOCC4)cc3c21 [pemigatinib] | -3.69 | -0.468 | 4.64 | -0.619 | 24 | – | – | – | – | –
FC(F)(F)c1ccc(CNc2ccc(Cc3c[nH]c4ncc(Cl)cc34)cn2)cn1 [pexidartinib] | 7.59 | 10 | 24 | 6.38 | 16 | – | – | – | – | –
CO[C@]1(C(=O)N[C@@H](C)c2ccc(-n3cc(F)cn3)nc2)CC[C@H](c2nc(C)cc(Nc3cc(C)[nH]n3)n2)CC1 [pralsetinib] | 62 | -5 | 3 | 68 | 95 | – | – | – | – | –
CCn1c(=O)c(-c2cc(NC(=O)Nc3ccccc3)c(F)cc2Br)cc2cnc(NC)cc21 [ripretinib] | 100 | -0.0717 | 13 | 54 | 81 | – | – | – | – | –
COc1ccc(CN2C3CC2CN(c2ccc(-c4cc(OCC(C)(C)O)cn5ncc(C#N)c45)cn2)C3)cn1 [selpercatinib] | 49 | -4 | 7 | 96 | 84 | – | – | – | – | –
Cn1cnc2c(F)c(Nc3ccc(Br)cc3Cl)c(C(=O)NOCCO)cc21 [selumetinib] | -1.4 | -3 | 1.58 | -1.78 | 14 | – | – | – | – | –
Cc1cc(Nc2ncnc3ccc(NC4=NC(C)(C)CO4)cc23)ccc1Oc1ccn2ncnc2c1 [tucatinib] | 2 | -0.029 | 3.65 | 1.07 | 3.64 | – | – | – | – | –
C=CC(=O)N1CCC([C@@H]2CCNc3c(C(N)=O)c(-c4ccc(Oc5ccccc5)cc4)nn32)CC1 [zanubrutinib] | -1.86 | 0.315 | 5.63 | 0.758 | – | – | – | – | – | –
